According to PubChem BioAssay (NCI):
Several values for one entry are separate records, joined by “and”; a condition that tells them apart may be missing. Identical values can stand only once.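 Grown in 96-well plates, cells were treated for 48 hours with each compound at five concentrations. Insufficient inhibition: endpoint recorded as highest concentration tested. At the GI50, growth is halved. TGI denotes the concentration required for complete inhibition of growth.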

Columns and labels:
Experiment in all cases: inhibition of tumour cell growth, NCI panel, 48 h
CCRF-CEM leukemia = system: CCRF-CEM leukemia
HCT-116 colon = system: HCT-116 colon
SK-MEL-5 melanoma = system: SK-MEL-5 melanoma
SF-295 CNS = system: SF-295 CNS
SF-539 CNS = system: SF-539 CNS
EKVX NSCLC = system: EKVX NSCLC
RXF 393 renal = system: RXF 393 renal
MDA-MB-231 breast = system: MDA-MB-231 breast
ACHN renal = system: ACHN renal
OVCAR-4 ovarian = system: OVCAR-4 ovarian

| SMILES | TGI (CCRF-CEM leukemia) | TGI (HCT-116 colon) | TGI (SK-MEL-5 melanoma) | TGI (SF-295 CNS) | TGI (SF-539 CNS) | TGI (EKVX NSCLC) | TGI (RXF 393 renal) | TGI (MDA-MB-231 breast) | TGI (ACHN renal) | TGI (OVCAR-4 ovarian) | GI50 (CCRF-CEM leukemia) | GI50 (HCT-116 colon) | GI50 (SK-MEL-5 melanoma) | GI50 (SF-295 CNS) | GI50 (SF-539 CNS) | GI50 (EKVX NSCLC) | GI50 (RXF 393 renal) | GI50 (MDA-MB-231 breast) | GI50 (ACHN renal) | GI50 (OVCAR-4 ovarian) |
| --- | --- | --- | --- | --- | --- | --- | --- | --- | --- | --- | --- | --- | --- | --- | --- | --- | --- | --- | --- | --- |
| O=[As](O)(O)c1ccc(Cc2ccc([As](=O)(O)O)cc2)cc1 | 1.05 µM | 2.13 µM | 1.89 µM | 8.46 µM | 0.542 µM | 2.88 µM | 1.53 µM | 2.3 µM | 2.31 µM | 7.47 µM | – | – | – | – | – | – | – | – | – | – |
| N#Cc1nc(-c2ccccc2)oc1S(=O)(=O)N1CCOCC1 | 14.6 µM | 3.42 µM | 17.3 µM | > 100 µM | 7.69 µM | 24.9 µM | 3.08 µM | 29.9 µM | 3.15 µM | 9.2 µM | 1.73 µM | 1.74 µM | 5.23 µM | 38.2 µM | 2.6 µM | 4.4 µM | 1.68 µM | 14.1 µM | 1.76 µM | 2.73 µM |
| COC(=O)CCC1=C(C)c2cc3[n-]c(cc4nc(cc5[n-]c(cc1n2)c(CCC(=O)OC)c5C)C=C4C)cc3C.[Cd+2] | > 56.4 µM | 25.3 µM | 2.83 µM | 77 µM | 15.2 µM | > 52.2 µM | 10.9 µM | 31.4 µM | 38.8 µM | 7.14 µM | 3.34 µM | 8.42 µM | 1.14 µM | 17.5 µM | 4.39 µM | 5.89 µM | 2.88 µM | 7.28 µM | 16.2 µM | 2.35 µM |
| CN(Cc1cnc2nc(N)nc(N)c2n1)c1ccc(C(=O)NC(CCC(=O)O)C(=O)O)cc1 (stereo not drawn) | > 100 µM | > 100 µM | > 100 µM | 36.5 µM | > 25.3 µM | > 100 µM | > 100 µM | > 100 µM | > 100 µM | > 100 µM | 0.056 µM | 0.0416 µM | 0.443 µM | 0.175 µM | 0.234 µM | 0.399 µM | – | > 24 µM | 0.292 µM | > 100 µM |
| O=Cc1coc2ccccc2c1=O | 69.7 µM | 32 µM | 39 µM | 41.2 µM | 31.9 µM | 49.9 µM | 40.2 µM | 48.4 µM | 45.2 µM | 43.8 µM | – | – | – | – | – | – | – | – | – | – |
| CC(=O)Oc1cccc2c1C(=O)c1c(OC(C)=O)cc(C)cc1C2=O | > 100 µM | > 100 µM | > 100 µM | > 100 µM | > 100 µM | > 100 µM | > 100 µM | > 100 µM | > 100 µM | > 100 µM | – | – | – | – | – | – | – | – | – | – |
| C[Se]C(=O)CC1=C2C=C(F)C=CC2/C(=C\c2ccc(S(C)=O)cc2)C1C (stereo not drawn) | > 20.6 µM | 1.64 µM | 0.266 µM | 0.0465 µM | 0.0923 µM | 0.0967 µM | 0.8 µM | 0.327 µM | 3.07 µM | 7.05 µM | 0.208 µM | 0.119 µM | 0.111 µM | < 0.0156 µM | 0.0371 µM | < 0.0113 µM | 0.0289 µM | 0.0427 µM | 0.154 µM | 0.131 µM |
| O=c1[nH]c(-c2ccc(C(F)(F)F)cc2)nc2c1CSCC2 | > 100 µM | > 100 µM | > 100 µM | > 100 µM | > 100 µM | > 100 µM | 65.8 µM | > 100 µM | > 100 µM | > 100 µM | > 100 µM | > 63.7 µM | 88.9 µM | 52.7 µM | > 100 µM | > 42.1 µM | 19.6 µM | 40.4 µM | 32.9 µM | 20.1 µM |
| Oc1ccccc1-n1c(-c2ccccc2)ccc1-c1ccccc1 | 71.1 µM | 16.6 µM | > 100 µM | 21 µM | 31.9 µM | 25.3 µM | 23 µM | 22.1 µM | 21.2 µM | 23.3 µM | 4.77 µM | 4.71 µM | 3.05 µM | 6.6 µM | 15.2 µM | 2.64 µM | 7.93 µM | 4.21 µM | 9.13 µM | 7.24 µM |
| C=C1C(C)C2C(Cc3ccccc3)NC(=O)C23C(OC(C)=O)/C=C/C(C)(O)CC(C)C/C=C/C3C1O (stereo not drawn) | 85 µM | > 100 µM | 35.6 µM | 33.2 µM | 13 µM | > 96.7 µM | 2.97 µM | > 100 µM | > 100 µM | 82.9 µM | – | – | – | – | – | – | – | – | – | – |
| CCSC1=CC(=O)c2ccccc2C1=O | – | 2.84 µM | 20.3 µM | 30.7 µM | 28.2 µM | 23.2 µM | 4.54 µM | 3.3 µM | 2.65 µM | 2.37 µM | 0.374 µM | 1.48 µM | 7.11 µM | 15.3 µM | 12.7 µM | 7.82 µM | 2.09 µM | 0.759 µM | 1.27 µM | 0.959 µM |
| CN(C)c1ccc(/C=C/c2ccnc3ccccc23)cc1 | > 100 µM | > 100 µM and 13.8 µM | > 100 µM and 11.7 µM | > 100 µM and 21.2 µM | > 100 µM and 17.5 µM | > 100 µM and 30.2 µM | > 100 µM | > 100 µM and 30 µM | > 100 µM | > 100 µM | 4.52 µM | 3.09 µM | 2.48 µM | 3.43 µM | 3.14 µM | 3.19 µM | 13.4 µM | 5.36 µM | 5.58 µM | 16.8 µM |
| COc1ccc([C@H]2O[C@@H](CO)C[C@]2(O)c2ccc(OC)cc2)cc1 | > 100 µM | > 100 µM | > 100 µM | > 100 µM | > 100 µM | > 100 µM | > 100 µM | > 100 µM | > 100 µM | > 100 µM | > 100 µM | > 100 µM | > 100 µM | > 100 µM | > 100 µM | > 100 µM | 28.4 µM | > 100 µM | > 100 µM | > 100 µM |
